# In ChEMBL document CHEMBL5576094, “A Diterpenoid of the Medicinal Plant Andrographis paniculata Targets Cutaneous TRPV3 Channel and Relieves Itch” (J Nat Prod, 2024):
# The source made the active and inactive calls. The calls are words filed in the database; no cut-off is given here.
# Key:
# [1] = molecular target: T1, Transient receptor potential cation channel subfamily V member 3 (Homo sapiens, UniProt Q8NET8); test: Inhibition of human TRPV3 expressed in HEK293 cells assessed as reduction in 2-APB induced channel current at voltage ramp from -100 to +100 mV by whole-cell patch clamp electrophysiology; assay type: cell-based
# T1 sequence (Q8NET8 whole entry): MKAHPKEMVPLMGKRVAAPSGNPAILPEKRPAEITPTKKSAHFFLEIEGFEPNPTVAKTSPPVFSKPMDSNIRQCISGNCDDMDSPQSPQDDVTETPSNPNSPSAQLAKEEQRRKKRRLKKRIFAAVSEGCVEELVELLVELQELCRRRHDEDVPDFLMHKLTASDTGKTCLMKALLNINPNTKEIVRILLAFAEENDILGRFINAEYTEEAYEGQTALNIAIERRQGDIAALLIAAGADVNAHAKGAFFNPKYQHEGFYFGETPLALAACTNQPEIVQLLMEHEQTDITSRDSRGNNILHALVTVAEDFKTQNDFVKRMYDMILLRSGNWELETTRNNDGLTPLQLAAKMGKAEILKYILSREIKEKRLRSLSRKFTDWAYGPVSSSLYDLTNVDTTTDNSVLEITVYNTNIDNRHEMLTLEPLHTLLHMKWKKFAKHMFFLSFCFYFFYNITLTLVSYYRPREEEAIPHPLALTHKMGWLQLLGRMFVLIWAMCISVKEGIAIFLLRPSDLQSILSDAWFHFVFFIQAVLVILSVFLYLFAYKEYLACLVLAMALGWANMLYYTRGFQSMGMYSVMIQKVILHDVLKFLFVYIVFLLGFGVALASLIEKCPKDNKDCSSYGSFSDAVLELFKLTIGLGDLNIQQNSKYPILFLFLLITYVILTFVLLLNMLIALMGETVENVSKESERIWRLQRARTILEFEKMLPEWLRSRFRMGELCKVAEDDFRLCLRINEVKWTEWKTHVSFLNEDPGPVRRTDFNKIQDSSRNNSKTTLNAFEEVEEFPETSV
# [2] = species: Mus musculus; test: Antipruritic activity in carvacrol-induced scratching C57BL/6 mouse model assessed as inhibition of neck scratching behavior at 30 uM, ID pretreated for 30 mins followed by carvacrol stimulation and measured for 30 mins relative to control; assay type: functional; conditions: C57BL/6, 1 h, time 60 min
# [3] = species: Mus musculus; test: Antipruritic activity in carvacrol-induced scratching C57BL/6 mouse model assessed as inhibition of neck scratching behavior at 300 uM, ID pretreated for 30 mins followed by carvacrol stimulation and measured for 30 mins relative to control; assay type: functional; conditions: C57BL/6, 1 h, time 60 min
# [4] = species: Mus musculus; test: Antipruritic activity in histamine-induced scratching C57BL/6 mouse model assessed as inhibition of neck scratching behavior at 0.3 to 30 uM, ID pretreated for 30 mins followed by histamine stimulation and measured for 30 mins relative to control; assay type: functional; conditions: dose 0.3-30 µM, time 60 min, 1 h
# [5] = molecular target: T2, Transient receptor potential cation channel subfamily V member 3 (Homo sapiens) (UniProt Q8NET8); test: Inhibition of human TRPV3 expressed in CHO cells assessed as reduction in 2-APB-induced intracellular calcium flux at 20 uM measured for 60 mins by Fluo-4-AM dye based fluorescence assay; assay type: cell-based
# T2 sequence (whole entry): T1 sequence (Q8NET8 whole entry)
# [6] = molecular target: T2, Transient receptor potential cation channel subfamily V member 3 (Homo sapiens); test: Inhibition of human TRPV3 expressed in CHO cells assessed as reduction in 2-APB induced channel current at 10 uM at -80 mV by whole-cell patch clamp electrophysiology; assay type: cell-based
# [7] = molecular target: T2, Transient receptor potential cation channel subfamily V member 3 (Homo sapiens); test: Inhibition of human TRPV3 expressed in CHO cells assessed as reduction in 2-APB induced channel current at 10 uM at +80 mV by whole-cell patch clamp electrophysiology; assay type: cell-based
# [8] = molecular target: T2, Transient receptor potential cation channel subfamily V member 3 (Homo sapiens); test: Irreversible inhibition of human TRPV3 expressed in CHO cells assessed as reduction in 2-APB induced channel current at 10 uM at -80 mV incubated prior to compound washout followed by 2-APB addition by whole-cell patch clamp electrophysiology; assay type: cell-based
# [9] = molecular target: T2, Transient receptor potential cation channel subfamily V member 3 (Homo sapiens); test: Irreversible inhibition of human TRPV3 expressed in CHO cells assessed as reduction in 2-APB induced channel current at 10 uM at +80 mV incubated prior to compound washout followed by 2-APB addition by whole-cell patch clamp electrophysiology; assay type: cell-based
# [10] = molecular target: T1, Transient receptor potential cation channel subfamily V member 3; test: Inhibition of human TRPV3 expressed in CHO cells assessed as reduction in 2-APB induced channel current at -80 mV by whole-cell patch clamp electrophysiology; assay type: cell-based
# [11] = molecular target: T1, Transient receptor potential cation channel subfamily V member 3; test: Inhibition of human TRPV3 expressed in CHO cells assessed as reduction in 2-APB induced channel current at +80 mV by whole-cell patch clamp electrophysiology; assay type: cell-based
# [12] = molecular target: T2, Transient receptor potential cation channel subfamily V member 3 (Homo sapiens); test: Inhibition of human TRPV3 expressed in CHO cells assessed as reduction in 2-APB induced maximal channel current at voltage ramps from -80 to +80 mV by whole-cell patch clamp electrophysiology relative to control; assay type: cell-based
# [13] = molecular target: Transient receptor potential cation channel subfamily V member 1 (Rattus norvegicus) (UniProt O35433); test: Inhibition of rat TRPV1 expressed in CHO cells assessed as reduction in capsaicin-induced intracellular calcium flux at 20 uM measured for 60 mins by Fluo-4-AM dye based fluorescence assay; assay type: cell-based
# Transient receptor potential cation channel subfamily V member 1 (Rattus norvegicus), sequence (O35433 whole entry): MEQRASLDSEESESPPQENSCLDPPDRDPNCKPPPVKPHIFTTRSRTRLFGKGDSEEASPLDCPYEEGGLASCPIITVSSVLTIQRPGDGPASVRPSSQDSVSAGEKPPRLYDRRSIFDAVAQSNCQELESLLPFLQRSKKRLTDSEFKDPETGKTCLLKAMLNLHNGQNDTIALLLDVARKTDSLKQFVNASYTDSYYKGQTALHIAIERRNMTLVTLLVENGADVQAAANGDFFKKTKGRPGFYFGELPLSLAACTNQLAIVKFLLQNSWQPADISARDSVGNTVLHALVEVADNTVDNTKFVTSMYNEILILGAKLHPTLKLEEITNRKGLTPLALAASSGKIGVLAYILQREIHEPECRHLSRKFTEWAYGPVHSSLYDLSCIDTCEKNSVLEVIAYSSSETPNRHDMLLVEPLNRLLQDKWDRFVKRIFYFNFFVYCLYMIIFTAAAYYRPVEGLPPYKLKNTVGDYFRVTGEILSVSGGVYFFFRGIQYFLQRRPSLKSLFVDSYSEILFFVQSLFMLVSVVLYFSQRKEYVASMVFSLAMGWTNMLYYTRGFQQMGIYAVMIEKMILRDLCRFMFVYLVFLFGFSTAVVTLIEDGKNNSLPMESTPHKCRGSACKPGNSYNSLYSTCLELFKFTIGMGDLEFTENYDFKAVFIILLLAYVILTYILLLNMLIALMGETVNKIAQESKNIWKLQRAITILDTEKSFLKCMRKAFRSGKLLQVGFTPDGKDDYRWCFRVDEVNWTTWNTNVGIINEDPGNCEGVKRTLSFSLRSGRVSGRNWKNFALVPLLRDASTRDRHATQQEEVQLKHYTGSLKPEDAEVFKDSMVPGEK
# [14] = molecular target: Transient receptor potential cation channel subfamily A member 1 (Rattus norvegicus) (UniProt Q6RI86); test: Inhibition of rat TRPA1 expressed in CHO cells assessed as reduction in AITC-induced intracellular calcium flux at 20 uM measured for 60 mins by Fluo-4-AM dye based fluorescence assay; assay type: cell-based
# Transient receptor potential cation channel subfamily A member 1 (Rattus norvegicus), sequence (Q6RI86 whole entry): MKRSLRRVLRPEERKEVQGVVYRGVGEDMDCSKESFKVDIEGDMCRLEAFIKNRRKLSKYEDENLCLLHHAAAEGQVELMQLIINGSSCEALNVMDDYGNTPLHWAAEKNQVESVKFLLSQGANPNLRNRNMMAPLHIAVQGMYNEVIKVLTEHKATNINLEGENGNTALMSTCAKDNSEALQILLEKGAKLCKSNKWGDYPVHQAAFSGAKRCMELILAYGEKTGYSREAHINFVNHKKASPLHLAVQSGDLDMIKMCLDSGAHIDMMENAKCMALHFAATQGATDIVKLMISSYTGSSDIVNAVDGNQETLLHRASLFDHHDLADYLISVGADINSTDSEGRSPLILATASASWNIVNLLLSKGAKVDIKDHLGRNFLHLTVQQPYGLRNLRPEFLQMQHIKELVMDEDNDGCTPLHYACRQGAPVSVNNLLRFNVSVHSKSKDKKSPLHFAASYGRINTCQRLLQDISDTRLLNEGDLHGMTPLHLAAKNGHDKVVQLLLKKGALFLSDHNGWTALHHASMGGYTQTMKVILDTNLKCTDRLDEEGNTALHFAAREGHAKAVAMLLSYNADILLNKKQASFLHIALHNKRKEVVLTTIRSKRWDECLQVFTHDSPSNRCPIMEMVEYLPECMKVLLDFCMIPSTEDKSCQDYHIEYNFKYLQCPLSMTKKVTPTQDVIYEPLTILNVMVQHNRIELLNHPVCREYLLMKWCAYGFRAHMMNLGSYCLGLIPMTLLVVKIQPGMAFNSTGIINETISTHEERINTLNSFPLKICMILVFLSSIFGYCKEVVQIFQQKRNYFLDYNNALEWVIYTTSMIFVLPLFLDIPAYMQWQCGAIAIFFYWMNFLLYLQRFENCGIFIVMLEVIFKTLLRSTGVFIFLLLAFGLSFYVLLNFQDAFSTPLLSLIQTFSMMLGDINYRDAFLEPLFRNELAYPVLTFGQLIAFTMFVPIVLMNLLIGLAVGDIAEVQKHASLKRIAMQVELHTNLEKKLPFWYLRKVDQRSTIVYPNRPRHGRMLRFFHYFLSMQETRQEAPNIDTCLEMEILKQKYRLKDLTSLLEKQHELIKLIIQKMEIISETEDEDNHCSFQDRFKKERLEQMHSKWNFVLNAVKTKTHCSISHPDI
# [15] = molecular target: Transient receptor potential cation channel subfamily V member 4 (Homo sapiens) (UniProt Q9HBA0); test: Inhibition of human TRPV4 expressed in CHO cells assessed as reduction in GSK1016790A-induced intracellular calcium flux at 20 uM measured for 60 mins by Fluo-4-AM dye based fluorescence assay; assay type: cell-based
# Transient receptor potential cation channel subfamily V member 4 (Homo sapiens), sequence (Q9HBA0 whole entry): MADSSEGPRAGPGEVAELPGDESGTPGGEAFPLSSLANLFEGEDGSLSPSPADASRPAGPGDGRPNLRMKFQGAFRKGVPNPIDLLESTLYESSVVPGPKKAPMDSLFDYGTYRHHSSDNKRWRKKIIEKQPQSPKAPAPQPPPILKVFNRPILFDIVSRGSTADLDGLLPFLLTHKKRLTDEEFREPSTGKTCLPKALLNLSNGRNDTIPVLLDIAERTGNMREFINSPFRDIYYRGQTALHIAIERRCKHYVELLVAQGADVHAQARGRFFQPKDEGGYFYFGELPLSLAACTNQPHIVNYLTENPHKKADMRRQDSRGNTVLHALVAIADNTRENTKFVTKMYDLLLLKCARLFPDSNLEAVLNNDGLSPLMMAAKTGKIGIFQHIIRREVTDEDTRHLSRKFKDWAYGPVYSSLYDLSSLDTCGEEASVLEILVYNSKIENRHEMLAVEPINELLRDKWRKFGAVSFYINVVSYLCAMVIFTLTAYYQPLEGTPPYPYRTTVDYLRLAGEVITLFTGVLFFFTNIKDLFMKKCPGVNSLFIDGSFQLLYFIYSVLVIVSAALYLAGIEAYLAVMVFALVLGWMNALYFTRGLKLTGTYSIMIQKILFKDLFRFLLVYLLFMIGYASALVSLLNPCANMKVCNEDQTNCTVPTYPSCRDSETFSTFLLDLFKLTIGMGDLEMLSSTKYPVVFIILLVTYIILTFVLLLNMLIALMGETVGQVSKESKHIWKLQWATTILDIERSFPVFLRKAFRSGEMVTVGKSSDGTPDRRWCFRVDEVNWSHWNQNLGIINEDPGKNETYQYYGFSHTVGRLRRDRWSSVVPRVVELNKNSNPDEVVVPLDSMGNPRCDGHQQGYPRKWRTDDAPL
# [16] = molecular target: T3, Acid-sensing ion channel 1 (Rattus norvegicus) (UniProt P55926); test: Inhibition of rat ASIC1a expressed in Xenopus Oocytes at 20 uM at holding potential of -50 mV by whole-cell electrophysiology; assay type: cell-based; conditions: Oocyte
# T3 sequence (whole entry): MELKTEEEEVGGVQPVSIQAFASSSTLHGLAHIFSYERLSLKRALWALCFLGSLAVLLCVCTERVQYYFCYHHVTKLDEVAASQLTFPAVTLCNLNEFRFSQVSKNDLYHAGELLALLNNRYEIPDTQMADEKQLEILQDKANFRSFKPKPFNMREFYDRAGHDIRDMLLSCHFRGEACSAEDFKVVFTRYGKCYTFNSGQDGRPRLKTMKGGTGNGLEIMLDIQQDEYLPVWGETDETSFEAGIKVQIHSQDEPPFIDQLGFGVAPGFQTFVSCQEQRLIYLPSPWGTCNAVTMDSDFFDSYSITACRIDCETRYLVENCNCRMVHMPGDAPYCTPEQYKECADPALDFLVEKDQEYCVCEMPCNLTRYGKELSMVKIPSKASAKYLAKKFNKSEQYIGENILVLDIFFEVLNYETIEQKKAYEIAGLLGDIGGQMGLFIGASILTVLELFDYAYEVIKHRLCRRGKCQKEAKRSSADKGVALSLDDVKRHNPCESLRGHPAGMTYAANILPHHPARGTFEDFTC
# [17] = molecular target: T4, Acid-sensing ion channel 3 (Homo sapiens) (UniProt Q9UHC3); test: Inhibition of human ASIC3 expressed in Xenopus Oocytes at 20 uM at holding potential of -50 mV by whole-cell electrophysiology; assay type: cell-based; conditions: Oocyte
# T4 sequence (whole entry): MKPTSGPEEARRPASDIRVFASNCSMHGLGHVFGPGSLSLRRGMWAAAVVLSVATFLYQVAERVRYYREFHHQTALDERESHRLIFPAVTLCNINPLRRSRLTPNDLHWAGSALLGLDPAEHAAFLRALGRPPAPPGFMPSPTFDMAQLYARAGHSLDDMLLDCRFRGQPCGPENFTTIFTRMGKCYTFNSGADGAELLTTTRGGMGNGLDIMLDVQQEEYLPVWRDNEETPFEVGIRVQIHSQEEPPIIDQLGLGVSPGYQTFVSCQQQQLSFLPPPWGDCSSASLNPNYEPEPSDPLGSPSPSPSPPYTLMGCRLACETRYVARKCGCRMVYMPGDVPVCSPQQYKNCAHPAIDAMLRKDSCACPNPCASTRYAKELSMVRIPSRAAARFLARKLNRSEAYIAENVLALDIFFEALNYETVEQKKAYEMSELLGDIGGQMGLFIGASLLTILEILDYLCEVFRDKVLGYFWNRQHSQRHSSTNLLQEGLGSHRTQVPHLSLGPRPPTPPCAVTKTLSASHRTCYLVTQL
# [18] = molecular target: T1, Transient receptor potential cation channel subfamily V member 3; test: Inhibition of TRPV3 in human HaCaT cells assessed as reduction in carvacrol-induced calcium influx measured for 60 mins by Fluo-4-AM dye based fluorescence assay; assay type: cell-based
# [19] = molecular target: T2, Transient receptor potential cation channel subfamily V member 3 (Homo sapiens); test: Inhibition of TRPV3 in human HaCaT cells assessed as reduction in carvacrol-induced calcium influx measured for 60 mins by Fluo-4-AM dye based fluorescence assay relative to control; assay type: cell-based
# [20] = molecular target: T2, Transient receptor potential cation channel subfamily V member 3 (Homo sapiens); test: Inhibition of human TRPV3 expressed in CHO cells assessed as reduction in 2-APB induced channel current at +80 mV by whole-cell patch clamp electrophysiology relative to control; assay type: cell-based
# [21] = molecular target: T2, Transient receptor potential cation channel subfamily V member 3 (Homo sapiens); test: Inhibition of human TRPV3 expressed in CHO cells assessed as reduction in 2-APB induced channel current at -80 mV by whole-cell patch clamp electrophysiology relative to control; assay type: cell-based
# [22] = test system: HaCaT; test: Cytotoxicity against human HaCaT cells assessed as reduction in cell viability measured after 24 hrs by MTT assay; assay type: toxicity, cell-based
# [23] = Induction of pruritic reaction in ICR mouse assessed as number of scratching bouts at 30 uM, ID measured within 30 mins (reference value: 6 +/- 1 No_Unit); assay type: toxicity; conditions: other, 0.5 h
# [24] = Induction of pruritic reaction in ICR mouse assessed as number of scratching bouts at 100 uM, ID measured within 30 mins (reference value: 6 +/- 1 No_Unit); assay type: toxicity; conditions: other, 0.5 h
# [25] = species: Mus musculus; test: Antipruritic activity in carvacrol-induced scratching ICR mouse model assessed as number of scratching bouts at 30 uM, ID pretreated for 30 mins followed by carvacrol stimulation and measured for 30 mins (reference value: 174 +/- 7); assay type: functional; conditions: time 60 min, 1 h
# [26] = species: Mus musculus; test: Antipruritic activity in carvacrol-induced scratching ICR mouse model assessed as number of scratching bouts at 100 uM, ID pretreated for 30 mins followed by carvacrol stimulation and measured for 30 mins (reference value: 174 +/- 7); assay type: functional; conditions: time 60 min, 1 h
# [27] = species: Mus musculus; test: Antipruritic activity in histamine-induced scratching ICR mouse model assessed as number of scratching bouts at 0.3 uM, ID pretreated for 30 mins followed by histamine stimulation and measured for 30 mins (reference value: 123 +/- 6); assay type: functional; conditions: time 60 min, 1 h
# [28] = species: Mus musculus; test: Antipruritic activity in histamine-induced scratching ICR mouse model assessed as number of scratching bouts at 3 uM, ID pretreated for 30 mins followed by histamine stimulation and measured for 30 mins (reference value: 123 +/- 6); assay type: functional; conditions: time 60 min, 1 h
# [29] = species: Mus musculus; test: Antipruritic activity in histamine-induced scratching ICR mouse model assessed as number of scratching bouts at 30 uM, ID pretreated for 30 mins followed by histamine stimulation and measured for 30 mins (reference value: 123 +/- 6); assay type: functional; conditions: time 60 min, 1 h
# [30] = species: Mus musculus; test: Antipruritic activity in histamine-induced scratching ICR mouse model assessed as inhibition of neck scratching behavior at 3 uM, ID pretreated for 30 mins followed by histamine stimulation and measured for 10 mins relative to control; assay type: functional; conditions: 40 min
# [31] = species: Mus musculus; test: Antipruritic activity in histamine-induced scratching ICR mouse model assessed as inhibition of neck scratching behavior at 3 uM, ID pretreated for 30 mins followed by histamine stimulation and measured after 10 to 30 mins; assay type: functional, organism-based; conditions: time 40-60 min
# [32] = species: Mus musculus; test: Antipruritic activity in carvacrol-induced scratching ICR mouse model assessed as inhibition of neck scratching behavior at 100 uM, ID pretreated for 30 mins followed by carvacrol stimulation and measured for 30 mins relative to control; assay type: functional; conditions: 1 h, time 60 min
compound,measurement,setting,value
C[C@@H]1O[C@@H](O[C@@H]2[C@@H](O)[C@H](OCCc3ccc(O)c(O)c3)O[C@H](CO[C@@H]3OC[C@](O)(CO)[C@H]3O)[C@H]2OC(=O)/C=C/c2ccc(O)c(O)c2)[C@H](O)[C@H](O)[C@H]1O,IC50,[1],6700 nM
same,inhibition in vivo at 30 µM,[2],~56%
same,inhibition in vivo at 300 µM,[3],77%
same,inhibition (INH),[4],57%
C=C1CC[C@@H]2[C@](C)(CO)[C@H](O)CC[C@@]2(C)[C@@H]1/C=C/C1=CCOC1=O,inhibition,[5],Active
same,inhibition,[6],Active
same,inhibition,[7],Active
same,inhibition,[8],Active
same,inhibition,[9],Active
same,IC50,[10],560 nM
same,IC50,[11],800 nM
same,fold change (FC),[12],2
same,inhibition,[13],inactive
same,inhibition,[14],inactive
same,inhibition,[15],inactive
same,inhibition,[16],inactive
same,inhibition,[17],inactive
same,IC50,[18],850 nM
same,Imax,[19],43%
same,Imax,[20],49%
same,Imax,[21],50%
same,Activity,[22],Non-Toxic
same,Activity,[23],8.1
same,Activity,[24],10.6
same,Activity,[25],178
same,Activity,[26],129
same,Activity,[27],95
same,Activity,[28],57
same,Activity,[29],59
same,inhibition in vivo at 3 µM,[30],~40%
same,inhibition,[31],Active
same,inhibition in vivo at 100 µM,[32],~26%
